The supplement of paper PMC10307832

compound: Cn1nnc2c(C(N)=O)ncn2c1=O [Temozolomide] + O=C(CCCCCCC(=O)Nc1ccccc1)NO [Vorinostat] (partner 1 µM); assay: relative viability (nuclei count vs DMSO), 5 days (fraction); higher = more cells survive; settings: first compound 0.6325 µM
Outline: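 Cells from lung cancer lines were seeded into 1536-well plates and, one day later, dosed by pin tool. Treatments were either a single drug or a fixed dose of an anchor drug with five library-drug doses (not always all listed) in √10 steps. After 5 days, nuclei were stained in a one-step fixation (final 0.05% Triton X-100, 1% formaldehyde, 1 ug/ml Hoechst) and counted on 4× images, and relative viability is the treated-to-vehicle nuclei ratio, as the median of duplicate plates.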

Row | Cell Line | relative viability
1 | BEN | 0.558
2 | CAL-12T | 0.881
3 | COR-L23 | 0.531
4 | COR-L 105 | 0.645
5 | ChaGo-K-1 | 0.724
6 | EKVX | 0.745
7 | EMC-BAC-2 | 0.628
8 | EPLC-272H | 0.545
9 | H3255 | 0.793
10 | HARA | 0.514
11 | HCC-15 | 0.847
12 | HCC-44 | 1.09
13 | HCC-78 | 0.433
14 | HCC-366 | 0.349
15 | HCC-827 | 0.785
16 | HOP-62 | 0.58
17 | IA-LM | 1.05

Row | Cell Line | relative viability
18 | LC-2-ad | 0.717
19 | LCLC-97TM1 | 0.763
20 | LCLC-103H | 0.814
21 | LK-2 | 0.296
22 | LOU-NH91 | 0.934
23 | NCI-H358 | 0.656
24 | NCI-H522 | 1.02
25 | NCI-H727 | 1.15
26 | NCI-H1395 | 0.837
27 | NCI-H1648 | 0.436
28 | NCI-H1793 | 0.847
29 | NCI-H1944 | 0.561
30 | NCI-H2170 | 0.763
31 | NCI-H2342 | 0.833
32 | SK-MES-1 | 1.12
33 | SW 900 | 0.498

same assay, conditions: first compound 2 µM

Row | Cell Line | relative viability
34 | 201T | 1.04
35 | A-427 | 0.837
36 | ABC-1 | 0.907
37 | BEN | 0.652
38 | CAL-12T | 0.885
39 | COR-L23 | 0.521
40 | COR-L 105 | 0.922
41 | ChaGo-K-1 | 0.719
42 | EKVX | 0.691
43 | EMC-BAC-2 | 0.454
44 | EPLC-272H | 0.527
45 | H3255 | 0.77
46 | HARA | 0.511
47 | HCC-15 | 0.791
48 | HCC-44 | 1.02
49 | HCC-78 | 0.429
50 | HCC-366 | 0.307
51 | HCC-827 | 0.817

Row | Cell Line | relative viability
52 | HOP-62 | 0.675
53 | IA-LM | 0.895
54 | LC-2-ad | 0.726
55 | LCLC-97TM1 | 0.659
56 | LCLC-103H | 0.881
57 | LK-2 | 0.386
58 | LOU-NH91 | 1.03
59 | NCI-H358 | 0.6
60 | NCI-H522 | 1.02
61 | NCI-H727 | 1.31
62 | NCI-H1395 | 0.663
63 | NCI-H1648 | 0.624
64 | NCI-H1793 | 0.758
65 | NCI-H1944 | 0.541
66 | NCI-H2170 | 0.631
67 | NCI-H2342 | 0.9
68 | SK-MES-1 | 1.11
69 | SW 900 | 0.569

same assay, conditions: first compound 6.325 µM

Row | Cell Line | relative viability
70 | 201T | 0.91
71 | A-427 | 0.685
72 | ABC-1 | 1.21
73 | BEN | 0.58
74 | CAL-12T | 0.781
75 | COR-L23 | 0.476
76 | COR-L 105 | 0.837
77 | ChaGo-K-1 | 0.738
78 | EKVX | 0.794
